The source of these data is ChEMBL document CHEMBL1146917, “Discovery and structure-activity relationship of 2-phenyl-oxazole-4-carboxamide derivatives as potent apoptosis inducers” (Bioorg Med Chem Lett, 2006).

Each structure is given as a SMILES string. Values after ≈ are worked out from the molar mass of the structure shown. Active and inactive are the calls of the source. No cut-off for these calls is given here.

Data set [1] relates to DLD-1. As to the kind of experiment: Inhibition of tumor growth in BALB/c nude mouse implanted with DLD1 cells at 50 mg/kg, ip, qd. It counts as functional. The settings on record: DLD-1, ip.
The test system of data set [2] is DLD-1. Put plainly: Activity against caspase-mediated PARP cleavage in human DLD1 cells at 1 uM after 48 hrs by Western blot analysis. It counts as functional, cell-based. In general terms: Immunoblotting shows a protein as a band on a membrane.
The test system of data set [3] is DLD-1. As to the kind of experiment: Inhibition of tumor growth in BALB/c nude mouse implanted with DLD1 cells at 50 mg/kg, ip, bid. It counts as functional. The settings on record: DLD-1, ip.
Data set [4] relates to DLD-1. As to the kind of experiment: Inhibition of tumor growth in BALB/c nude mouse implanted with DLD1 cells at 100 mg/kg, ip, qd. The class given is functional. The settings on record: DLD-1, ip.
In data set [5] the test system is DLD-1. As to the kind of experiment: Activity against DNA laddering in DLD1 cells at 1 uM after 48 hrs. The class given is functional, cell-based. The following applies: Homo sapiens.
Data set [6] has as its system DLD-1. As to the kind of experiment: Growth inhibition of human DLD1 cells. It counts as functional.
Data set [7] can be described thus: Solubility of the compound. The class given is physicochemical.
The subject of data set [8] is DLD-1. As to the kind of experiment: Induction of apoptosis in human DLD1 cells assessed as activation of caspases by HTS assay. It counts as functional, cell-based.

On to `O=C(Cc1ccc(OC(F)(F)F)cc1)NCc1ccc(-c2nc(C(=O)N3CCCCC3)co2)cc1`, for which the inhibition in vivo (as a rule, the percentage by which the read-out fell short of the control) at 50 mg/kg in the data set on DLD-1 [1] amounted to 21%; in the data set with DLD-1 [3], 63%. Further, the result in the data set on DLD-1 [2] and in the data set on DLD-1 [5] was Active. In the data set on DLD-1 [4], this molecule yielded an inhibition in vivo at 100 mg/kg of 38%. In the data set on DLD-1 [6], the GI50 (as a rule, the concentration at which growth is held to half of that of the control) is 229 nM. The solubility (in general, the dissolved amount per volume that the medium holds) in data set [7] worked out at 44 µM (≈ 21.4 µg/mL). For the same molecule, the EC50 (usually the midpoint of the concentration-response curve) in the data set with DLD-1 [8] was 270 nM.
In the case of `O=C(Cc1ccccc1)NCc1ccc(-c2nc(C(=O)N3CCC(CO)CC3)co2)cc1`, in the data set with DLD-1 [8], the EC50 amounted to 196 nM.
On to `CC1CCCN(C(=O)c2coc(-c3ccc(CNC(=O)Cc4ccccc4)cc3)n2)C1` (stereo unspecified), for which, in the data set on DLD-1 [8], the EC50 amounted to 193 nM.
Take `O=C(Cc1ccccc1F)NCc1ccc(-c2nc(C(=O)N3CCCCC3)co2)cc1`: the EC50 in the data set on DLD-1 [8] was found to be 65 nM.
Regarding `O=C(Cc1ccccc1)NCc1ccc(-c2nc(C(=O)N3CCCCCC3)co2)cc1`, the half-maximal effective concentration (EC50) in the data set with DLD-1 [8] is 33 nM.
The same measure, in the same setting: the value for `O=C(Cc1ccccc1)NCc1ccc(-c2nc(C(=O)N3CCC(Cl)CC3)co2)cc1` was 492 nM; that for `O=C(Cc1ccccc1)NCc1ccc(-c2nc(C(=O)N3CCC(O)CC3)co2)cc1` was 150 nM; that for `O=C(Cc1ccccc1)NCc1ccc(-c2nc(C(=O)N3CCCC3)co2)cc1` was 553 nM.
On the same count and under the same terms, under `COC1CCN(C(=O)c2coc(-c3ccc(CNC(=O)Cc4ccccc4)cc3)n2)CC1` stands 5230 nM; under `O=C(Cc1ccccc1O)NCc1ccc(-c2nc(C(=O)N3CCCCC3)co2)cc1`, 1010 nM.
On the same count and under the same terms, under `O=C(Cc1cccc(F)c1)NCc1ccc(-c2nc(C(=O)N3CCCCC3)co2)cc1` stands 72 nM; under `O=C(Cc1ccccc1)NCc1ccc(-c2nc(C(=O)N3CCCCCCC3)co2)cc1`, 108 nM; under `O=C(Cc1ccccc1)NCc1ccc(-c2nc(C(=O)N3CCCC(Cl)C3)co2)cc1` (stereo unspecified), 119 nM.
`O=C(Cc1ccccc1)NCc1ccc(-c2nc(C(=O)N3CCCC(O)C3)co2)cc1` (stereo unspecified): the 50% effective concentration (EC50) in the data set on DLD-1 [8] was found to be 196 nM.
On the same count and under the same terms, the value for `O=C(Cc1ccccc1)NCc1ccc(-c2nc(C(=O)N3CCC(F)CC3)co2)cc1` was 304 nM; that for `O=C(Cc1ccccc1)NCc1ccc(-c2nc(C(=O)N3CCCC(F)C3)co2)cc1` (stereo unspecified) was 85 nM.
`O=C(Cc1ccccc1)NCc1ccc(-c2nc(C(=O)N3CCCC(F)(F)C3)co2)cc1` displayed a GI50 in the data set with DLD-1 [6] of 15 nM. The solubility in data set [7] was under 10 µM. In addition, in the data set on DLD-1 [8], the EC50 is 20 nM.
Take `O=C(Cc1ccc(Cl)cc1)NCc1ccc(-c2nc(C(=O)N3CCCCC3)co2)cc1`: the half-maximal effective concentration (EC50) in the data set with DLD-1 [8] came out at 274 nM.
With `O=C1CCN(C(=O)c2coc(-c3ccc(CNC(=O)Cc4ccccc4)cc3)n2)CC1`, in the data set with DLD-1 [8], the 50% effective concentration (EC50) turned out to be 115 nM.
Same read-out and setting: the value for `O=C(Cc1ccccc1)NCc1ccc(-c2nc(C(=O)N3CC=CCC3)co2)cc1` was 108 nM; that for `O=C(Cc1ccc(O)cc1)NCc1ccc(-c2nc(C(=O)N3CCCCC3)co2)cc1` was 73 nM; that for `O=C(Cc1ccccc1)NCc1ccc(-c2nc(C(=O)N3CCC(F)(F)CC3)co2)cc1` was 979 nM.
As to `C[C@@H]1CC[C@H](C)N1C(=O)c1coc(-c2ccc(CNC(=O)Cc3ccccc3)cc2)n1`, the concentration giving a half-maximal response (EC50) with DLD-1 [8] was 34 nM.
On the same count and under the same terms, the value for `O=C(Cc1ccc(F)cc1)NCc1ccc(-c2nc(C(=O)N3CCCCC3)co2)cc1` was 233 nM; that for `CC1CCN(C(=O)c2coc(-c3ccc(CNC(=O)Cc4ccccc4)cc3)n2)CC1` was 258 nM.
In the data set on DLD-1 [6], `O=C(Cc1cccs1)NCc1ccc(-c2nc(C(=O)N3CCCCC3)co2)cc1` displayed a GI50 of 75 nM. The molecule also displayed a solubility in data set [7] of 29 µM (≈ 11.9 µg/mL). Also, in the data set on DLD-1 [8], the EC50 was 59 nM.
The matching figures for `O=C(Cc1ccccc1)NCc1ccc(-c2nc(C(=O)N3CCCCC3)co2)cc1`: 258 nM, 47 µM (≈ 19 µg/mL) and 65 nM.
As to `O=C(Cc1cccc(Cl)c1)NCc1ccc(-c2nc(C(=O)N3CCCCC3)co2)cc1`, the half-maximal effective concentration (EC50) in the data set on DLD-1 [8] came to 533 nM.
The same measure, in the same setting: under `O=C1CCCN(C(=O)c2coc(-c3ccc(CNC(=O)Cc4ccccc4)cc3)n2)C1` stands 235 nM.
The same measure, in the same setting: under `Cc1ccc(CC(=O)NCc2ccc(-c3nc(C(=O)N4CCCCC4)co3)cc2)cc1` stands 142 nM.
Still for that read-out and setting: the value for `O=C(Cc1ccccc1)NCc1ccc(-c2nc(C(=O)N3CC4CC4C3)co2)cc1` (stereo unspecified) was 318 nM.
For `COC1CCCN(C(=O)c2coc(-c3ccc(CNC(=O)Cc4ccccc4)cc3)n2)C1` (stereo unspecified), the EC50 with DLD-1 [8] was 259 nM.
Same read-out and setting: the value for `O=C(Cc1cccc(O)c1)NCc1ccc(-c2nc(C(=O)N3CCCCC3)co2)cc1` was 139 nM.
